Results as given in publication PMC3790851, “Improved Mass Spectrometry Assay For Plasma Hepcidin: Detection and Characterization of a Novel Hepcidin Isoform” (PLoS ONE, 2013).
pEC50: −log10 of the molar value.

Legend:
[1] = target: T1, green fluorescent protein (GFP)-fused human ferroportin (Homo sapiens, UniProt Q9NP59); assay: Hepcidin bioactivity assay: GFP-ferroportin internalization and degradation; format: cell-based; settings: stable cell line, inducible GFP-fused human ferroportin; fluorescence in triplicate wells; four parameter logistic fit; 95% confidence interval: hepcidin-24 126.8 nM - 289.2 nM, hepcidin-25 12.2 nM –17.8 nM; read-out: EC50 for ferroportin internalization and degradation
T1 construct: expressed in transfected cells
T1 sequence (Q9NP59 1-571): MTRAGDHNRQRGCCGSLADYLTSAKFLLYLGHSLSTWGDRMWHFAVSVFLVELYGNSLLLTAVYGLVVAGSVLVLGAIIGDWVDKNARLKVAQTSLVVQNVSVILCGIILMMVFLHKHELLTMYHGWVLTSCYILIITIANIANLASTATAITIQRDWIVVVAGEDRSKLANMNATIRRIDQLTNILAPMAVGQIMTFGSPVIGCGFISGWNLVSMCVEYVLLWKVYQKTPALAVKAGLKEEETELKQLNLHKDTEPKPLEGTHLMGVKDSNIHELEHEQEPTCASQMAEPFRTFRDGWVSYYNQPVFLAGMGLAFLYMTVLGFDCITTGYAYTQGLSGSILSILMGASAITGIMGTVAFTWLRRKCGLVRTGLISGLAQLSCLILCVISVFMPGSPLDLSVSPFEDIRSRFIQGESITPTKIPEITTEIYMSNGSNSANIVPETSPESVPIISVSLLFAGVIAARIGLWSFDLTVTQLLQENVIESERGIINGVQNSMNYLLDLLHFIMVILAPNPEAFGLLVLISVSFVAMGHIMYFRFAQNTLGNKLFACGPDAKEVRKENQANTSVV
From the text: A stable cell line engineered for inducible expression of green fluorescent protein (GFP)-fused human ferroportin was used as a test system to determine hepcidin-24 activity relative to hepcidin-25, 22 and 20. In this cell system, ferroportin internalization and degradation provided a means to quantify hepcidin activity. The assay was implemented basically as described by Nemeth et al., [33] except that fluorescence was quantified in triplicate wells on a microplate reader. To determine EC50 values for hepcidin-25 and hepcidin-24, a curve was fitted by nonlinear regression with a four parameter logistic equation using Prism v5 (GraphPad).
Figure 5 Hepcidin-mediated ferroportin internalization. Different concentrations of synthetic hepcidin-25, -24, -22 and -20 (indicated in nM on the horizontal axis) were added to the growth medium of a stable cell line that expresses green fluorescent protein-fused ferroportin (GFP-FPN). Hepcidin-mediated GFP-FPN internalization and degradation was quantified by measuring cellular fluorescence levels in arbitrary units.

in vitro [2] = settings: for remaining at 4320 h: human
Method: Serum samples from healthy controls that were used in this study concerned leftover aliquots (stored at −80°C) that were collected in February 2011 [18]. In addition, citrate plasma, heparin plasma, EDTA plasma and serum for stability studies was drawn in the afternoon from healthy volunteers (n = 5), known for having fasted morning hepcidin levels above the lower limit of detection (>0.5 nM) in September 2012. Fresh samples were measured within 2–4 hrs hours after blood drawing and stored in aliquots at various temperatures for prolonged incubation.
Heparin plasma QC samples (n = 2), high and low (HiQC2011 and LoQC2011), were obtained in November 2011 by pooling sample leftover samples from IC patients and iron-depleted HFE-hemochromatosis patients, respectively. Serum QC samples (n = 2), high and low (HiQC2009 and LoQC2009), were obtained in April 2009 from 2 blood donors from the local blood donation centre. To obtain the high QC sample, serum of one of the donors with a native hepcidin concentration <1 nM was spiked with synthetic hepcidin-25 from Peptide International (PI, Louisville, KY, USA) to a concentration of 9 nM.
WCX-TOF MS was performed between October 2011 and March 2013 as described previously by a combination of WCX bead-based hepcidin enrichment followed by TOF-MS [6]. As internal standards for quantification were used: i) synthetic hepcidin-24 (custom made Peptide International, 2673.9 Da; [5]); ii) novel custom made heavy hepcidin-25^+40 (see below, Table 1). Mass-to-charge (m/z) spectra were generated by using MALDI-TOF MS (Microflex LT, Bruker Daltonics). Spectra were analyzed by using Bruker Daltonics FlexAnalysis software. A detailed protocol of this method is described in [6]. Total hepcidin concentration was defined as the sum of hepcidin-25, -24, -22, and -20 concentrations.
Using the novel heavy hepcidin-25 internal standard, we assessed changes in hepcidin-25 and the smaller isoforms in various samples containing various anticoagulants ex vivo at room temperature (RT), 4°C, −20°C and −80°C. More specifically, changes in hepcidin concentrations relative to those found in freshly collected samples were determined i) at storage at RT and 4°C on day 0 (fresh samples), 1 (14–22 hrs), 2, 3, and 7 days after sampling/storage, ii) at −20°C after 1 week, and after 1, 4 and 6 months of storage and iii) at −80°C at after 6 months of storage. We also assessed the effect of the addition of protease inhibitors on the stability of hepcidin concentrations of heparin plasma of IC patients at RT during a 1 week storage. To this end, before storage we used 1 tablet of protease inhibitor (Complete, Mini, Roche Diagnostics, Mannheim, Germany) solved in 200 µL PBS, of which 20 µL was added to 1 ml plasma. Finally, we used our QC charts to assess the stability of hepcidin concentrations in heparin plasma and serum QC aliquots stored at −80°C for 2 years.

in vitro [3] = settings: human, heparin plasma
Method: Samples were used for measurement of hepcidin between 4–7 hrs after blood drawing and/or pooled and/or stored in aliquots at various temperatures for prolonged periods of time.
Mass-to-charge (m/z) spectra were generated by using MALDI-TOF MS (Microflex LT, Bruker Daltonics). Spectra were analyzed by using Bruker Daltonics FlexAnalysis software. […] Total hepcidin concentration was defined as the sum of hepcidin-25, -24, -22, and -20 concentrations.

[4] = serum from 12 healthy controls; stable for; ref 35 Itkonen et al.; cited from earlier work

CC[C@H](C)[C@@H]1NC(=O)[C@@H](NC(=O)[C@@H](NC(=O)[C@@H]2CCCN2C(=O)[C@H](Cc2ccccc2)NC(=O)[C@H](Cc2c[nH]cn2)NC(=O)[C@@H](NC(=O)[C@@H](N)CC(=O)O)[C@@H](C)O)[C@@H](C)CC)CSSC[C@@H](C(=O)N[C@@H](CCCCN)C(=O)N[C@H](C(=O)O)[C@@H](C)O)NC(=O)[C@@H]2CSSC[C@H](NC(=O)[C@H](Cc3ccccc3)NC1=O)C(=O)N[C@H]1CSSC[C@H](NC(=O)[C@H](CCCCN)NC(=O)[C@H](CO)NC(=O)[C@H](CCCNC(=N)N)NC(=O)[C@H](Cc3c[nH]cn3)NC(=O)[C@@H]3CSSC[C@H](NC(=O)CNC1=O)C(=O)N3)C(=O)NCC(=O)N[C@@H](CCSC)C(=O)N2 [Hepcidin-25]
pEC50 [1]: 7.83 | stable at -80°C for, QC heparin plasma (in vitro [2]; QC heparin plasma samples, heavy hepcidin internal standard): at least 1.5 years | stable at -80°C for, QC serum (in vitro [2]; QC serum samples, former hepcidin-24 internal standard): 2 years | Hepcidin level after 6 months at -80°C, EDTA plasma (in vitro [2]; average, 5 controls, CV 5): 96% | Hepcidin level after 6 months at -80°C, citrate plasma (in vitro [2]; average, 5 controls, CV 5): 96% | remaining at 4320 h (in vitro [2]; heparin plasma): 95% | remaining at 4320 h (in vitro [2]; serum): 94% | average decrease in hepcidin-25 after 6 months at -80°C (in vitro [2]; serum, heparin, EDTA and citrate plasma, 5 healthy volunteers, not significant): 4–6% | Hepcidin level after one day at 4°C, EDTA plasma (average, % of fresh, 10 IC patients and 5 controls, results <1.0 nM deleted, CV (Hep-25/-24/-22/-20) 11/6/11/22, n = 15/8/6/9): 101% | Hepcidin level after one week at 4°C, EDTA plasma (average, % of fresh, 7 days, 10 IC patients and 5 controls, CV (Hep-25/-24/-22/-20) 9/8/18/21, n = 15/8/6/9, hepcidin-20 in stored EDTA plasma unreliable (additional peak)): 101% | stability at 4°C for 0–7 days (heparin and EDTA plasma (10 IC patients, 5 controls), citrate plasma and serum (5 controls)): remained stable | remaining at 168 h (in vitro [3]): 99% | stability at room temperature [4]: 1 days
